Tests used:
human thrombin = biological target: T1, human thrombin (Homo sapiens, UniProt P00734); assay: Thrombin inhibition, kinetic measurement with substrate S-2238; type: biochemical; conditions: pH 7 5, 25° C., substrate H-(D)-Phe-Pro-Arg-pNA
T1 construct: purchased Sigma
Description: The kinetic measurements were carried out in 0 1 M phosphate buffer which contained 0 2 M sodium chloride and 0 5 % polyethylene glycol 6000 at a pH=7 5 and 25° C. using the substrate H-(D)-Phe-Pro-Arg-pNA (S-2238 Kabi) and human thrombin (Sigma specific activity=2150 NIH-units/mg) in polystyrene semimicrocuvettes in a total volume of 1 ml
Since the measurement curves obtained in both experiments were linear and parallel, the active substance of formula (I) is a rapid thombin inhibitor. The inhibition constant Ki was determined as follows The substrate was added at concentrations of 100 μM. 50 μM. 30 μM, 20 μM and at each substrate concentration a measurement was carried out without inhibitor and three measurements were carried out in the presence of various concentrations of the inhibitor of formula (I). The reactions were started by addition of thrombin. The increase in absorbance at 405 nm caused by the formation of p-nitroanilide was monitored for a time period of 12 min. Measurement points (time versus absorbance) were transferred to a PC at intervals of 20 sec. […] From one measurement series (constant inhibitor concentration, variable substrate concentrations) Km′ and Vmax were determined by a non-linear fit to the equation [formula]
Finally Ki was determined from the total series of measurements by non-linear fit to the equation [formula]

[1] = biological target: T2, bovine pancreatic trypsin (Bos taurus, UniProt P00760); assay: Inhibition of trypsin; type: biochemical; conditions: measured as described for thrombin, Km=45 μM, read-out: inhibition constant Ki
T2 construct: purchased Sigma; host or cells: bovine pancreas
T2 sequence (P00760 24-246): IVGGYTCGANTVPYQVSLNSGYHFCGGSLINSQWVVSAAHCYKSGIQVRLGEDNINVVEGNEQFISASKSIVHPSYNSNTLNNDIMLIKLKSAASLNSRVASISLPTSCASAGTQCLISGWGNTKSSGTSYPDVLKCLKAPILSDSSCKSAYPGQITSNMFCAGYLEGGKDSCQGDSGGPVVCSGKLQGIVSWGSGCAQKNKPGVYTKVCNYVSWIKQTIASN
Description: 10 mg bovine pancreatic trypsin (Sigma) was dissolved in […] hydrochloric acid and stored in a refrigerator 20 μl thereof was admixed with 980 ul 1 mM hydrochloric acid. 25 μl thereof was used for each measurement. The measurement was carried out as described for thrombin. Km=45 μM.

horse thrombin = assay: Thrombin time (citrate plasma, sphere coagulometer); type: biochemical; conditions: control thrombin time ca 24 seconds
Description: A common test in clinical coagulation diagnostics is the thrombin time. This parameter detects the action of thrombin on fibrinogen and the formation of blood clots. Inhibitors of thrombin result in an increased thrombin time
In order to obtain plasma 9 parts fresh blood from healthy donors are mixed with one part sodium citrate solution (0 11 mol/l) and centrifuged at ca 3000 rpm for 10 min at room temperature, The plasma was removed by pipette and can be stored for ca 8 h at room temperature.
200 μl citrate plasma was incubated for 2 min at 37° C. in a sphere coagulometer (KC10 from the Amelung-Company). 10 μl dimethylsulfoxide (DMSO) or a solution of the active substance in DMSO was added to 190 μl preheated thrombin reagent (Boehringer Mannheim, GmbH. contains ca. 3 U/ml horse thrombin and […]) A stopwatch was started when this 200 μl solution was added to the plasma and the time point at which coagulation starts was determined In the control measurements the thrombin time was ca 24 seconds and was increased by the compound of example 3 depending on the concentration (test concentration/increase of thrombin time 5 μM>300*sec: 0 5 μM/96 sec. 0 05 μM/9 sec) [* the experiment was stopped after 5 minutes]

[2] = biological target: isolated activated GpIIb/IIIa receptor (Homo sapiens, UniProt P05106+P08514); assay: GpIIb/IIIa fibrinogen ELISA; conditions: fibrinogen binding to coated GpIIb/IIIa receptor; read-out: gpIIb/IIIa-Inhibition IC50
Description: The GpIlb/Illa fibrinogen Elisa is a modification of assays which are described in the following literature: Nachman, R. L. & Leung, L. L. K. (1982): J. Clin. Invest. 69: 263-269 and Wright, P. S. et al. (1993): Biochem. J. 293:263-267.
Microtitre plates were coated overnight with 2 μg/ml isolated activated GpIIb/IIIa receptor. After unbound receptor had been removed by washing several times the surface of the plates is blocked with 1% casein and it is washed again. The test substance is added at the required concentrations and the plates are incubated for 10 minutes while shaking. The natural ligand of the gpIIb/IIIa receptor, fibrinogen, is added. After incubating for 1 hour unbound fibrinogen is removed by washing several times and the bound fibrinogen is determined by means of a peroxidase-conjugated, anti-fibrinogen monoclonal antibody by measuring the optical density at 405 nm in an ELISA instrument. The inhibition of a fibrinogen-GpIIb/IIIa interaction results in a low optical density. The IC50 value was determined by a concentration/effect curve.

Chain of isolated activated GpIIb/IIIa receptor (P08514 32-887 limits assumed): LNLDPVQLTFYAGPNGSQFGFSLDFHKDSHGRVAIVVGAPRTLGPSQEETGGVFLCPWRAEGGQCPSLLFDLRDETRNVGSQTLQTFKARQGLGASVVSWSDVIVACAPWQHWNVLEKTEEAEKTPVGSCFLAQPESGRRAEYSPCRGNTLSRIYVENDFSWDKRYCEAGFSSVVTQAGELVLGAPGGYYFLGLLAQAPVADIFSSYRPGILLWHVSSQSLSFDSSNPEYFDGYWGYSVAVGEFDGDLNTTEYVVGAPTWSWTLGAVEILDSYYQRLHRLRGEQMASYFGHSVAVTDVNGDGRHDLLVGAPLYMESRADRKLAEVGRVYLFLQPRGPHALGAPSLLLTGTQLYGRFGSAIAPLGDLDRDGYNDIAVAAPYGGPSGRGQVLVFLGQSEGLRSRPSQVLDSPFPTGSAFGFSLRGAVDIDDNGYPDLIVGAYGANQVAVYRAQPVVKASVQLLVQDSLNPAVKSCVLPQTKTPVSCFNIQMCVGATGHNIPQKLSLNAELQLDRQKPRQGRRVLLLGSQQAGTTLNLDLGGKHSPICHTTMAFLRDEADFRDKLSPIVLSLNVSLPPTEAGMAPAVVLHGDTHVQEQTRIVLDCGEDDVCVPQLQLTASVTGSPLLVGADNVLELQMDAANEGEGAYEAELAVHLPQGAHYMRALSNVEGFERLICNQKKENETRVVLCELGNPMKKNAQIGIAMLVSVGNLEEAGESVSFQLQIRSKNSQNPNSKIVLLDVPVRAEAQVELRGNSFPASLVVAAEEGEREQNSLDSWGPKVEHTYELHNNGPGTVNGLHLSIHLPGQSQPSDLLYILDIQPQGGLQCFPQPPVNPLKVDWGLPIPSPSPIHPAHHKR
Chain of isolated activated GpIIb/IIIa receptor (P08514 891-1039 partner limits assumed): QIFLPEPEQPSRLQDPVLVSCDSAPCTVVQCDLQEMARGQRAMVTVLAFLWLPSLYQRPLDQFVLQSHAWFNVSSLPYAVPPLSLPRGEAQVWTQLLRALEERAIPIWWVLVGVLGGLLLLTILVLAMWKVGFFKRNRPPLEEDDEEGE
Chain of isolated activated GpIIb/IIIa receptor (P05106 27-788): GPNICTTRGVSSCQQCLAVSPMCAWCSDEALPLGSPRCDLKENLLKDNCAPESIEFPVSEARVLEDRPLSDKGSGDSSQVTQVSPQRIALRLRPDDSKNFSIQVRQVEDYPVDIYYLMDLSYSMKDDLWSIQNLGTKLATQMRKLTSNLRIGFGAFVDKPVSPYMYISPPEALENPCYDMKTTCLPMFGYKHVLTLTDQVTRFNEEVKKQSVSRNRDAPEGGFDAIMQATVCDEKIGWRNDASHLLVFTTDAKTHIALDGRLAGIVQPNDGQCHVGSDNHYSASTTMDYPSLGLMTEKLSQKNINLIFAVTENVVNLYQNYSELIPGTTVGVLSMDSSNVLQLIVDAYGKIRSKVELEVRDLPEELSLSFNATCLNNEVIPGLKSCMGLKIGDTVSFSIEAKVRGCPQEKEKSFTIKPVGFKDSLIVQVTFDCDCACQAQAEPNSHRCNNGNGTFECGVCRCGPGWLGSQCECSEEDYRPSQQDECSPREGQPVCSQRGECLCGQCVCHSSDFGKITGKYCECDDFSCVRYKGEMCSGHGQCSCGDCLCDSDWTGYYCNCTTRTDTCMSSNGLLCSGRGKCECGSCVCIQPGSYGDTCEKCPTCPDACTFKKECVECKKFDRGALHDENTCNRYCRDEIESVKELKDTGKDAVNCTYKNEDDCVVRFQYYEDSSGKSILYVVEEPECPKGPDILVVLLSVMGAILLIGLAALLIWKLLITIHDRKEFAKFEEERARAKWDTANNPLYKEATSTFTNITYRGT

## CN[C@H](Cc1ccccc1)C(=O)N1CCC[C@H]1C(=O)NCCC1=CCN(C(=N)N)C1 [Example 4]
Human thrombin
  thrombin inhibition (in words): inhibits thrombin

## N=C(N)N1CC=C(CCNC(=O)[C@@H]2C[C@@H]3CC[C@@H](O)C[C@@H]3N2C(=O)[C@@H](Cc2ccccc2)NC(=O)[C@H](O)Cc2ccccc2)C1 [Example 1, D-Pla-D-Phe-L-Choi-Adc]
[1]
  Ki: 0.1 µM

## HOOC—CH2-D-Cha-(N-cyclopentyl)-Gly-Adc [Example 3]
Horse thrombin; test concentration 0 05 μM
  increase of thrombin time: 9 s
Horse thrombin; test concentration 0 5 μM
  increase of thrombin time: 96 s
Horse thrombin; test concentration 5 μM, experiment stopped after 5 minutes
  increase of thrombin time: > 300 s

## N=C(N)N1CC=C(CC(N)C(=O)NCC(=O)N[C@@H](CC(=O)O)C(=O)N[C@@H](Cc2ccccc2)C(N)=O)C1 (stereo partly drawn) [Example 11, Ada-Gly-Asp-Phe-NH2]
[2]
  IC50: 12.8 µM

— patent US20020026034A1, “3-AMINOETHYL-N-AMIDINO-2,5-DIHYDROPYRROLE DERIVATIVES HAVING ARGININE MIMETIC PROPERTIES” (priority 1995, published 2002)
